{"source": "patent US12576109B2", "about": "“Allogeneic human plasma and platelet derived products and uses thereof” (Consano Bio, Inc., priority 2024, dated 2026)", "key": {"THP-1 cells": {"tested_on": "THP-1 cells", "assay": "LPS-induced inflammation in THP-1 cells (MSD V-PLEX cytokines), Example 25", "type": "cell-based, human", "conditions": "Candesartan 1 μg/mL; 500 ng LPS; 24 hours", "protocol": "A composition comprising […] was prepared as described in Example 23 and sterile filtered, referred to as Composition […]. 300,000 THP-1 cells were plated per well. Control wells included media only. Cells were contacted with LPS and test articles as outlined in Tables 20 and 21. For a positive control, cells were administered 1.0 μg/mL Candesartan. Candesartan is a […] and known to reduce the production of cytokines. Specifically, candesartan is an angiotensin receptor subtype 1 inhibitor and was utilized as a positive control. The cells were incubated for 1 hour. The cells were incubated, and samples of the supernatant were collected at 4 hours and 24 hours. The remaining cells were collected and analyzed for total cell count and percent viability. The Meso Scale Discovery (MSD; Rockville, […]) V-PLEX kit (4-PLEX) with IL-1b, IL-6, IL-8, and TNF-α were used to analyze the cytokines in the media at 4 and 24 hours after LPS stimulation."}, "[1]": {"tested_on": "normal human dermal fibroblasts (NHDF) cells", "assay": "Scratch assay (in vitro wound closure)", "type": "cell-based", "conditions": "3.7 ng/mL PDGF-BB, positive control", "protocol": "The test articles are outlined in Table 30 below. Briefly, AHPPDP was prepared based on the methods disclosed herein.\n3,000 normal human dermal fibroblasts (NHDF) cells were plated per well. […] Vehicle at 9% concentration was the negative control.\nThe output measures of the scratch assay were, total number of nuclei per well, sum of cell area per well, and sum of empty area per well."}}}
{"molecule": "CCOc1nc2cccc(C(=O)O)c2n1Cc1ccc(-c2ccccc2-c2nnn[nH]2)cc1", "note": "[Candesartan]", "values": [{"measurement": "IL1-beta", "setting": "THP-1 cells", "result": 0, "unit": "pg/mL"}, {"measurement": "IL-6", "setting": "THP-1 cells", "result": 0, "unit": "pg/mL"}, {"measurement": "IL-8", "setting": "THP-1 cells", "result": 1.44, "unit": "pg/mL"}, {"measurement": "TNF-alpha", "setting": "THP-1 cells", "result": 0, "unit": "pg/mL"}]}
{"molecule": "PDGF-BB: PDGF-BB in cell media, positive control of the scratch assay (protein, UniProt P01127 82-190, looked up) Platelet-derived growth …: SLGSLTIAEPAMIAECKTRTEVFEISRRLIDRTNANFLVWPPCVEVQRCSGCCNNRNVQCRPTQVQLRPVQVRKIEIVRKKPIFKKATVTLEDHLACKCETVAAARPVT", "values": [{"measurement": "wound healing", "setting": "[1]", "result": "Wound healing compared to vehicle condition was obtained"}]}
